Experimental data as given in ChEMBL document CHEMBL1201862, “PubChem BioAssay data set” (2004).
The source made the active and inactive calls.

Legend:
[1] = target: T1, Rac GTPase-activating protein 1 (Homo sapiens, UniProt Q9H0H5); assay: blockers of MgcRacGAP-driven Rac1 GTP hydrolysis – biochemical, ADP Hunter fluorescence, primary and confirmatory, confirmation (AID 624330); assay type: functional
T1 sequence (Q9H0H5 whole entry): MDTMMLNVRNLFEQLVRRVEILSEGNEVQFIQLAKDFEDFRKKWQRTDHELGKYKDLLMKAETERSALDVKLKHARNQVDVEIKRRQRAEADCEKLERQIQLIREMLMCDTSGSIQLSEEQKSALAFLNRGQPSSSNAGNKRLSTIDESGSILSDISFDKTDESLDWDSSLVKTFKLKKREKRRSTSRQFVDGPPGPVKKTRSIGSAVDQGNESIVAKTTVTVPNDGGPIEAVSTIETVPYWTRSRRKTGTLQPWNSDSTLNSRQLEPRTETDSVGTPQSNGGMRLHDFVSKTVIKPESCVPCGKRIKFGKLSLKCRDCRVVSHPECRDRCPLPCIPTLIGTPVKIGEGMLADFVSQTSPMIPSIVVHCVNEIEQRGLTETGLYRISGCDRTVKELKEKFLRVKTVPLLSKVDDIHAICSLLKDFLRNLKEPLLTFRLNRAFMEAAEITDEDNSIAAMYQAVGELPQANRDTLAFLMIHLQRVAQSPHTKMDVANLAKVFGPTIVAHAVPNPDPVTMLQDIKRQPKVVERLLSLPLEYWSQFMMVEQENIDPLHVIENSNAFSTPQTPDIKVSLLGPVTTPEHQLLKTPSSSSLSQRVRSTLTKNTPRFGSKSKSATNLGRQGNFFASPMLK

[2] = viability loss in HeLa cells – cytotoxicity control for MgcRacGAP inhibitor project, dose response (AID 624300); assay type: functional
[3] = Trypanosoma cruzi growth suppression in host cells – NIH3T3 host cells, beta-gal luminescence, confirmation (AID 2044); assay type: functional, cell-based;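 also: intracellular parasites grown in NIH/3T3 mouse fibroblasts as host cells; luminescent beta-galactosidase reporter signal from transgenic T. cruzi replicating inside host cells; inhibitors lower the luminescence signal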
[4] = NIH3T3 cell viability loss – ATP luminescence, mouse fibroblasts, counter-screen, dose response (AID 2010); assay type: functional, cell-based;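 also: cells exposed to compound for about 90 hours before reading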
[5] = blockers of HIV-1 envelope-mediated cell-cell fusion – cherry-pick, dose response (AID 652057); assay type: functional, cell-based
[6] = blockers of HIV-1 ZM109 envelope-driven cell-cell fusion – HeLa effector, CEM target cells, luciferase, cherry-pick, dose response (AID 652058); assay type: functional, cell-based;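 also: luciferase signal from HIV-1 Env mediated cell-cell fusion of effector and target cells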
[7] = off-target signal loss in HeLa-CEM21 co-culture – HeLa F-luc CTL cells, cherry-picked, counter-screen for HIV-1 Env fusion inhibitor project, dose response (AID 652040); assay type: functional, cell-based;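 also: potency for signal decrease marking cytotoxic or nonspecific inhibition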
[8] = viability loss in CEM21 cells – cell-based, CellTiter-Glo luminescence, cherry-picked, cytotoxicity control for viral fusion inhibitor project, dose response (AID 652042); assay type: functional;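 also: potency for signal decrease meaning cytotoxicity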
Streptococcus = assay: GAS UMAA2166 growth inhibition – luminescence, BacTiterGlo, counter-screen for streptokinase expression inhibitor project, dose response (AID 1915); assay type: functional, organism-based;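 also: potency for reduction of bacterial viability or growth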
[9] = HIV-1 AD8 envelope cell-cell fusion blockers – cherry-pick, dose response (AID 652062); assay type: functional, cell-based;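 also: luciferase signal from cell-cell fusion driven by HIV-1 clade B AD8 Env; potency is for inhibitors of fusion seen as a drop in luminescence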
[10] = test system: Streptococcus sp. 'group A'; assay: Streptococcus pyogenes SK(-)GAS viability under kanamycin – luminescence, BacTiterGlo, confirmation, counter-screen for streptokinase expression inhibitor project, dose response (AID 1900); assay type: functional, organism-based
Streptokinase A = target: T2, Streptokinase A (Streptococcus pyogenes serotype M1, UniProt P10520); assay: viability-normalized secreted streptokinase activity reduction – plasminogen activation absorbance, OD405, dose response (AID 1914); assay type: functional, Streptococcus pyogenes M1 GAS;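 also: secreted streptokinase activity via plasminogen activation per viability signal from cell pellet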
T2 sequence (P10520 whole entry): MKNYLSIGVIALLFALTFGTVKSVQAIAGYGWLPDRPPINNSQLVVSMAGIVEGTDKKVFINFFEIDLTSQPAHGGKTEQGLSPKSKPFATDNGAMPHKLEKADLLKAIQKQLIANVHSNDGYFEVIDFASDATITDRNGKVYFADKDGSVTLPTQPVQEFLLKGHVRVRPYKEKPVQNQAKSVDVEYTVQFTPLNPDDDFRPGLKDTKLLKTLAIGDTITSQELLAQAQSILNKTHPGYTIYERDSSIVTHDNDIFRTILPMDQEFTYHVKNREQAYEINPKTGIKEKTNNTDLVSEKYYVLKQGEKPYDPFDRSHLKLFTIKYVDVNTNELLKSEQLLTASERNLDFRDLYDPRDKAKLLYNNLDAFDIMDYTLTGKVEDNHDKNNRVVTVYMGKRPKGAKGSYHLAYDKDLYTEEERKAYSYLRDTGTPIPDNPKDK

[11] = loss of viability in HepG2 cells – cell-based, CellTiter-Glo, cherry-picked, cytotoxicity control for Shn3 inhibitor project, dose response (AID 624134); assay type: functional
[12] = non-specific 3'UTR reporter inhibition in Clone20-Shn3RL – cell-based, Renilla luciferase, cherry-picked, counter-screen for Shn3 inhibitor project, dose response (AID 624133); assay type: functional
[13] = reduction of Shn3 3'UTR-driven luciferase in osteoblasts – cell-based, Clone20 osteoblasts, firefly luciferase, cherry-picked, dose response (AID 624132); assay type: functional;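 also: firefly luciferase luminescence from reporter carrying the Shn3 3'UTR in osteoblasts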
Cytochrome P450 1A2 = target: T3, Cytochrome P450 1A2 (Homo sapiens, UniProt P05177);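 also: PubChem cytochrome P450 panel assay, CYP1A2 panel member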
T3 sequence (P05177 whole entry): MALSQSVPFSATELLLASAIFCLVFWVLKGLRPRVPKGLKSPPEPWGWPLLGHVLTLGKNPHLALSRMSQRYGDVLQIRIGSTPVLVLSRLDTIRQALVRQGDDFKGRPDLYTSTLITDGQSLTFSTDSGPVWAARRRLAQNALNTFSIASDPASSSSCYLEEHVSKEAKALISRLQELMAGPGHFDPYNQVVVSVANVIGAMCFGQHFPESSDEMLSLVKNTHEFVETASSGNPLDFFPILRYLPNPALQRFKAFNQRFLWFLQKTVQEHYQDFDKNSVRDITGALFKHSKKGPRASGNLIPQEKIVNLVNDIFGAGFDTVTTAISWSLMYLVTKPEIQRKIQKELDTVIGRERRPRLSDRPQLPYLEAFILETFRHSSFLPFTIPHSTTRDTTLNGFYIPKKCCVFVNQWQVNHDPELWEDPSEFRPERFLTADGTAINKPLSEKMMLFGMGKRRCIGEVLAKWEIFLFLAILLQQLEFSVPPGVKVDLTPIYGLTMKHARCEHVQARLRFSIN

[14] = target: T4, Long-chain-fatty-acid--AMP ligase FadD28 (Mycobacterium tuberculosis, UniProt P9WQ59); assay: Fluorescence polarization aasay to screen for inhibitors that compete for the binding of FadD28 to a bisubstrate Measured in Biochemical System Using Plate Reader - 2147-01_Inhibitor_Dose_CherryPick_Activity.; assay type: functional, Mycobacterium tuberculosis H37Rv
T4 sequence (P9WQ59 whole entry): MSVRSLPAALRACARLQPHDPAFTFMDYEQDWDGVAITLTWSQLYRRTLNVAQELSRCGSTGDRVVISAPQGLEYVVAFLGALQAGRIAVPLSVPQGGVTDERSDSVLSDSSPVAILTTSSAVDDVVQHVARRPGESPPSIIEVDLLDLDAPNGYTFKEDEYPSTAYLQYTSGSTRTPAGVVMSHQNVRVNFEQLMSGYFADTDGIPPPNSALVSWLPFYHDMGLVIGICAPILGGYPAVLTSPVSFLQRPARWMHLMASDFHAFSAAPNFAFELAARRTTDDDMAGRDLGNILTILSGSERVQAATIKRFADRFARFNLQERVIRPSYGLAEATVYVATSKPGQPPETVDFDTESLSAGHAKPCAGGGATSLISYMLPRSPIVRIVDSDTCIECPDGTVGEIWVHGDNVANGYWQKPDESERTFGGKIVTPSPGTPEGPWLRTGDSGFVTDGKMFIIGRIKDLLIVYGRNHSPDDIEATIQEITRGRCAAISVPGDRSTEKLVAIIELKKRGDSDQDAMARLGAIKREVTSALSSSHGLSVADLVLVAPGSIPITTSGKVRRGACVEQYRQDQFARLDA

[15] = target: T5, Small ubiquitin-related modifier 1 (Homo sapiens, UniProt P63165); assay: SUMO1 protein interaction blockers, potency – biochemical, fluorescence polarization, uHTS hits, dose response (AID 624382); assay type: functional; details: read-out: IC50_Mean
T5 sequence (P63165 whole entry): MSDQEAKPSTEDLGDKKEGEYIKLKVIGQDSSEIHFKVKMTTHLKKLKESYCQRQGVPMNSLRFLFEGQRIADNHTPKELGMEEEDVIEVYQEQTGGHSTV

[16] = target: T5, Small ubiquitin-related modifier 1; assay: SUMO1 protein-protein binding blockers, potency – biochemical, FRET, dose response (AID 624383); assay type: functional; details: read-out: IC50_Mean
[17] = target: T6, Microphthalmia-associated transcription factor (Homo sapiens, UniProt O75030); assay: reducers of TRPM1 reporter luminescence, concentration series – cell-based, SK-MEL-5, cherry-picked, set 3, MITF inhibitor project, dose response (AID 493073); assay type: functional;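 also: SK-MEL-5 melanoma cells with luciferase driven by the MITF target TRPM1 promoter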
T6 sequence (O75030 whole entry): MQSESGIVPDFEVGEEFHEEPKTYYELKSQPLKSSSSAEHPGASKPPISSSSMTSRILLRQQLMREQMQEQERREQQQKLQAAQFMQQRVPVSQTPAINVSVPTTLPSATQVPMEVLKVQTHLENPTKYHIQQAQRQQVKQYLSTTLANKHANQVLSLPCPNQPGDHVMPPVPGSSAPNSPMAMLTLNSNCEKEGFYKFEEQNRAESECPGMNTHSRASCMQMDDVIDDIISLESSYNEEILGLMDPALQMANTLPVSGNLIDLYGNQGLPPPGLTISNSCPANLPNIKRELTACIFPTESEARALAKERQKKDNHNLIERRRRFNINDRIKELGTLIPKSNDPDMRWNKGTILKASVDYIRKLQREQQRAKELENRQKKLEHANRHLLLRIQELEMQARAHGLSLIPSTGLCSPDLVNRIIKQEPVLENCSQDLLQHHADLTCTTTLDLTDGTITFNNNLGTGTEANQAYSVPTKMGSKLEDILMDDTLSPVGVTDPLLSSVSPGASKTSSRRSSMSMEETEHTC

HEK293 [18] = assay: cells; details: Homo sapiens
HEK293 [19] = assay: cells; details: Homo sapiens; remark: listed apart in the source
[20] = target: T7, Sentrin-specific protease 8 (Homo sapiens, UniProt Q96LD8); assay type: functional
T7 sequence (Q96LD8 whole entry): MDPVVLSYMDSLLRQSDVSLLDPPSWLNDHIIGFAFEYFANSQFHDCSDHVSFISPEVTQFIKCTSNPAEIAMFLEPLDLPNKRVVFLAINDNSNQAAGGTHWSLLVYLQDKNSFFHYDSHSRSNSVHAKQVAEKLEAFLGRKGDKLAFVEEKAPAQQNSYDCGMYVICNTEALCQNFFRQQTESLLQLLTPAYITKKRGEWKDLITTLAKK

[21] = target: T7, Sentrin-specific protease 8; assay type: functional; remark: listed apart in the source

COc1ccc(Br)cc1CNCCc1cccc(Cl)c1
IC50 [1]: 130 µM (active)
CC50 [2]: 100 µM (active)
EC50 [3]: 1.12 µM (active)
EC50 [4]: > 60 µM (not active)

Cc1cccc(NC(=O)c2cc3n(n2)C(C(F)(F)F)CC(c2ccc4c(c2)OCO4)N3)c1 (configuration not stated)
AC50 [5]: 7.49 µM (active)
AC50 [6]: 7.75 µM (active)
AC50 [7]: 4.41 µM (active)
AC50 [8]: 61 µM (active)
EC50 (Streptococcus): 139 µM (active)
AC50 [9]: 17 µM (active)
EC50 [10]: 12.9 µM (active)
EC50 (Streptokinase A): 28.7 µM (active)

O=C(Nc1ccc(Oc2ccccc2)cc1)C1CCN(c2c3c(nc4ncnn24)CCC3)CC1
AC50 [5]: 3.83 µM (active)
AC50 [11]: 7.3 µM (active)
AC50 [6]: 9.59 µM (active)
AC50 [7]: > 32 µM (inactive)
AC50 [12]: 10.5 µM (active)
AC50 [8]: 42.7 µM (active)
AC50 [9]: 4.29 µM (active)
AC50 [13]: 5.64 µM (active)
AC50 (Cytochrome P450 1A2): 15.8 µM (inconclusive)

COc1cc(/C=N/NC(=O)CN(Cc2ccccc2)S(=O)(=O)c2ccc3c(c2)OCCO3)ccc1O
IC50 [1]: 74.6 µM (active)
CC50 [2]: 100 µM (active)
AC50 [14]: > 100 µM (inactive)

NNc1ccc([N+](=O)[O-])c2n[nH]c(O)c12
IC50 [1]: 76.8 µM (active)
IC50 [15]: > 66.6 µM (inactive)
IC50 [16]: 5.04 µM (active)

O=C(O)c1cccc(N/N=C/c2ccc(OC(F)(F)F)cc2)c1
AC50 [17]: 5.95 µM (active)
AC50 [14]: 39.7 µM (active)

CCC(C)(C)NC(=O)C(NS(=O)(=O)c1cccs1)c1ccccc1 (configuration not stated)
AC50 [5]: 4.25 µM (active)
EC50 (HEK293 [18]): > 59.6 µM (inactive)
EC50 (HEK293 [19]): > 59.6 µM (inactive)
AC50 [6]: 4.71 µM (active)
AC50 [7]: 4.24 µM (active)
AC50 [9]: 5.84 µM (active)

O=C(CCCn1c(=O)oc2ccccc21)N1CCc2ccccc2C1
IC50 [20]: 8 µM (active)
IC50 [21]: > 100 µM (inactive)
